Experimental data taken from patent US9365588B2, “Benzoxazines as modulators of ion channels” (Vertex Pharmaceuticals Incorporated, priority 2011, dated 2016).

Molecular target: human NaV 1.7 (Homo sapiens, UniProt Q15858)
Test: E-VIPR optical membrane potential assay with electrical stimulation
Format: cell-based
Conditions: sodium channel inhibition; read-out: Binned Activity Data (IC50)
Text: Assays for Detecting and Measuring NaV Inhibition Properties of Compound E-VIPR Optical Membrane Potential Assay Method with Electrical Stimulation
Sodium channels are voltage-dependent proteins that can be activated by inducing membrane voltage changes by applying electric fields. The electrical stimulation instrument and methods of use are described in Ion Channel Assay Methods PCT/US01/21652, herein incorporated by reference and are referred to as E-VIPR. The instrument comprises a microtiter plate handler, an optical system for exciting the coumarin dye while simultaneously recording the coumarin and oxonol emissions, a waveform generator, a current- or voltage-controlled amplifier, and a device for inserting electrodes in well. Under integrated computer control, this instrument passes user-programmed electrical stimulus protocols to cells within the wells of the microtiter plate.
24 hours before the assay on E-VIPR, HEK cells expressing human NaV subtype, like NaV 1.7, are seeded in 384-well poly-lysine coated plates at 15,000-20,000 cells per well. Other subtypes are performed in an analogous mode in a cell line expressing the NaV of interest. HEK cells are grown in media (exact composition is specific to each cell type and NaV subtype) supplemented with 10% FBS (Fetal Bovine Serum, qualified; GibcoBRL #16140-071) and 1% Pen-Strep (Penicillin-Streptomycin; GibcoBRL #15140-122). Cells are grown in vented cap flasks, in 90% humidity and 10% CO2, to 100% confluence. They are usually split by trypsinization 1:10 or 1:20, depending on scheduling needs, and grown for 2-3 days before the next split.
Bath1 buffer. Glucose 10 mM (1.8 g/L), Magnesium Chloride (Anhydrous), 1 mM (0.095 g/L), Calcium Chloride, 2 mM (0.222 g/L), HEPES 10 mM (2.38 g/L), Potassium Chloride, 4.5 mM (0.335 g/L), Sodium Chloride 160 mM (9.35 g/L).
Hexyl Dye Solution: Bath1 Buffer+0.5% β-cyclodextrin (make this prior to use, Sigma #C4767), 8 μM CC2-DMPE+2.5 μM DiSBAC6(3). To make the solution Add volume of 10% Pluronic F127 stock equal to volumes of CC2-DMPE+DiSBAC6(3). The order of preparation is first mix Pluronic and CC2-DMPE, then add DiSBAC6(3) while vortexing, then add Bath1+β-Cyclodextrin.
1) Pre-spot compounds (in neat DMSO) into compound plates. Vehicle control (neat DMSO), the positive control (20 mM DMSO stock tetracaine, 125 μM final in assay) and test compounds are added to each well at 160× desired final concentration in neat DMSO. Final compound plate volume will be 80 μL (80-fold intermediate dilution from 1 μL DMSO spot; 160-fold final dilution after transfer to cell plate). Final DMSO concentration for all wells in assay is 0.625%.
2) Prepare Hexyl Dye Solution.
3) Prepare cell plates. On the day of the assay, medium is aspirated and cells are washed three times with 100 μL of Bath1 Solution, maintaining 25 μL residual volume in each well.
4) Dispense 25 μL per well of Hexyl Dye Solution into cell plates. Incubate for 20-35 minutes at room temp or ambient conditions.
5) Dispense 80 μL per well of Bath1 into compound plates. Acid Yellow-17 (1 mM) is added and Potassium Chloride can be altered from 4.5 to 20 mM depending on the NaV subtype and assay sensitivity.
6) Wash cell plates three times with 100 μL per well of Bath1, leaving 25 μL of residual volume. Then transfer 25 uL per well from Compound Plates to Cell Plates. Incubate for 20-35 minutes at room temp/ambient condition
7) Read Plate on E-VIPR. Use the current-controlled amplifier to deliver stimulation wave pulses for typically 9 seconds and a scan rate of 400 Hz. A pre-stimulus recording is performed for 0.5 seconds to obtain the un-stimulated intensities baseline. The stimulatory waveform is applied for 9 seconds followed by 0.5 seconds of post-stimulation recording to examine the relaxation to the resting state. […]

Chain of human NaV 1.7 (Q15858 whole entry): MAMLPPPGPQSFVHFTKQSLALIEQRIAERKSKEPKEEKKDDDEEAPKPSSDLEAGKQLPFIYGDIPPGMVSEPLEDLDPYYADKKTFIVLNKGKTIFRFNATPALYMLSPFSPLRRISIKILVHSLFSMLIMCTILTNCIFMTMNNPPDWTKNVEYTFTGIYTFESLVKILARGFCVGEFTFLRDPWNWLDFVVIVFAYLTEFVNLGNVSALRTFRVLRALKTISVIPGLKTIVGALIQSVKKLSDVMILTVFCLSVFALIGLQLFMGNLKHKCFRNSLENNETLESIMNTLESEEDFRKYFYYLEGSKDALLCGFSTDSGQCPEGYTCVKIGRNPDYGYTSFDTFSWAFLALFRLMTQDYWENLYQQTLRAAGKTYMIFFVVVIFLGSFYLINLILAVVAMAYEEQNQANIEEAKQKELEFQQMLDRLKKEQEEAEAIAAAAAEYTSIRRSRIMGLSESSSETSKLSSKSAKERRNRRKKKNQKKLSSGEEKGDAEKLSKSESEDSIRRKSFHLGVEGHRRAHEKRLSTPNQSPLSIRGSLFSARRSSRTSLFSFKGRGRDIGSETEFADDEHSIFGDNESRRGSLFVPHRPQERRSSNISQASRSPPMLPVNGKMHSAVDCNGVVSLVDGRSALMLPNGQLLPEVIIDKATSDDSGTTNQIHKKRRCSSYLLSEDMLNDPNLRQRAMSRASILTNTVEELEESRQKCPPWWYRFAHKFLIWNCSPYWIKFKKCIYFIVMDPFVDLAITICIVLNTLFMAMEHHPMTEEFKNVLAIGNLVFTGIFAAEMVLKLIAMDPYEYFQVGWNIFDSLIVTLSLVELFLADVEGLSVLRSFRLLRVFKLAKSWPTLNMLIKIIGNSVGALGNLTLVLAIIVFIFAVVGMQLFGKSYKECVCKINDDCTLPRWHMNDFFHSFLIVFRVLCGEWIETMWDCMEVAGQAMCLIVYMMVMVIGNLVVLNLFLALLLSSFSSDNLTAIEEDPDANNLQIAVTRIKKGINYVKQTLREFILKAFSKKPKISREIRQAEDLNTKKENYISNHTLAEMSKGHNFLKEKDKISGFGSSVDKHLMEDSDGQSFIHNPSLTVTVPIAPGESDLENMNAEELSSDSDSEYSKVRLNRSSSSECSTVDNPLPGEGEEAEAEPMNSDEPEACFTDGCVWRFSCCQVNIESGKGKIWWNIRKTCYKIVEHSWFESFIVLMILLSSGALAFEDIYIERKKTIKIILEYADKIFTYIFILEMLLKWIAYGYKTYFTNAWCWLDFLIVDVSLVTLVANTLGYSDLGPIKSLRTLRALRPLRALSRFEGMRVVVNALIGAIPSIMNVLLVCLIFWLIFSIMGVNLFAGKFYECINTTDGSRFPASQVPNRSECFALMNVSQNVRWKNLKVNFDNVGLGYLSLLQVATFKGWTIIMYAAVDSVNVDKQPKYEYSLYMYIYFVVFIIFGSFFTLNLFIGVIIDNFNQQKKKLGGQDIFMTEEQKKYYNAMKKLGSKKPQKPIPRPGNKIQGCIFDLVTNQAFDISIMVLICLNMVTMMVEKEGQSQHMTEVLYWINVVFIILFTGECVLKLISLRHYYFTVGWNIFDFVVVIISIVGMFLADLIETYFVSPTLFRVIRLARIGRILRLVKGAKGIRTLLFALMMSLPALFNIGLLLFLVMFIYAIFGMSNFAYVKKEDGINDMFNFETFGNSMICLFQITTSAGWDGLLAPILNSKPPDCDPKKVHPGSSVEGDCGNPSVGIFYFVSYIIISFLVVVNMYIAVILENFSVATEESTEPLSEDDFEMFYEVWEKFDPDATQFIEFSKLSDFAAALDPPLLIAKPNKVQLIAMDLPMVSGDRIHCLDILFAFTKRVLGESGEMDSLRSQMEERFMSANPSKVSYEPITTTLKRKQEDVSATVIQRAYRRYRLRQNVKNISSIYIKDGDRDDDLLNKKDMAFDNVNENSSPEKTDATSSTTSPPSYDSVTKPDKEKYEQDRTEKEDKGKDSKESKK

Row | SMILES | IC50
1 | CC(C)Oc1ccc(C(=O)N2CCC3(CC2)Oc2ccccc2-c2c3cnn2C)cc1C#N [Compound 306] | ≤ 2000 nM
2 | Cc1cc(OC(C)C)ccc1C(=O)N1CCC2(CC1)Oc1ccccc1-c1nn(C)cc12 [Compound 188] | ≤ 2000 nM
3 | O=C(c1ccc(C2(O)COC2)cc1)N1CCC2(CC1)Oc1ccccc1-n1c(C(F)(F)F)ccc12 [Compound 9] | ≤ 2000 nM
4 | COc1ccc(C(=O)N2CCC3(CC2)Oc2ccccc2-n2c(C(F)(F)F)ccc23)nc1C [Compound 872] | ≤ 2000 nM
5 | CCNS(=O)(=O)c1ccc(C(=O)N2CCC3(CC2)Oc2ccccc2-n2c(C(F)(F)F)ccc23)cc1 [Compound 590] | ≤ 2000 nM
6 | Cn1ncc2c1-c1ccccc1OC21CCN(C(=O)c2cn(C)c3cccnc23)CC1 [Compound 600] | ≤ 2000 nM
7 | COc1ccc(C(=O)N2CCC3(CC2)Oc2ccccc2-n2c(C(F)(F)F)ccc23)nc1 [Compound 438] | ≤ 2000 nM
8 | O=C(c1ccc(O)c(Cl)c1)N1CCC2(CC1)Oc1ccccc1-n1c(C(F)(F)F)ccc12 [Compound 878] | ≤ 2000 nM
9 | CC(C)c1ccc(C(=O)N2CCC3(CC2)Oc2cc(Cl)ccc2-n2cccc23)c(=O)[nH]1 [Compound 39] | ≤ 2000 nM
10 | Cn1ncc2c1-c1ccccc1OC21CCN(C(=O)c2ccc(OC(F)(F)F)c(Cl)c2)CC1 [Compound 636] | ≤ 2000 nM
11 | COc1ncccc1C(=O)N1CCC2(CC1)Oc1ccccc1-c1c2cnn1C [Compound 642] | 2000 to 5000 nM
12 | O=C(c1cccnc1N1CCCC1)N1CCC2(CC1)Oc1ccccc1-n1c(C(F)(F)F)ccc12 [Compound 535] | ≤ 2000 nM
13 | O=C(c1ccccc1OC(F)F)N1CCC2(CC1)Oc1ccccc1-c1c2cnn1C(F)F [Compound 889] | ≤ 2000 nM
14 | CCOc1cccc(C(=O)N2CCC3(CC2)Oc2ccccc2-n2c3ccc2S(C)(=O)=O)c1F [Compound 445] | 2000 to 5000 nM
15 | Cn1cc2c(n1)-c1ccccc1OC21CCN(C(=O)c2ccccc2OC(F)F)CC1 [Compound 740] | ≤ 2000 nM
16 | COc1ccc(C(=O)N2CCC3(CC2)Oc2ccccc2-n2cccc23)cc1C(F)(F)F [Compound 477] | ≤ 2000 nM

Row | SMILES | IC50
17 | Cc1cc(C(=O)N2CCC3(CC2)Oc2cccc(F)c2-n2c(C#N)ccc23)ccc1OC(C)C [Compound 416] | ≤ 2000 nM
18 | COCCOc1ccc(C(=O)N2CCC3(CC2)Oc2ccccc2-c2c3cnn2CC(F)(F)F)cc1OC [Compound 391] | 2000 to 5000 nM
19 | Cn1cc2c(n1)-c1ccccc1OC21CCN(C(=O)c2ccnc3ccccc23)CC1 [Compound 652] | ≤ 2000 nM
20 | CCc1ccc(C(=O)N2CCC3(CC2)Oc2ccccc2-c2sc(C)nc23)cc1OC [Compound 257] | ≤ 2000 nM
21 | CC(C)C(O)c1ccc(C(=O)N2CCC3(CC2)Oc2ccccc2-c2c3cnn2C)cc1 (stereo not shown) [Compound 711] | ≤ 2000 nM
22 | COc1cc(C(=O)N2CCC3(CC2)Oc2ccccc2-c2c3cnn2C)ccc1OCC(N)=O [Compound 507] | > 5000 nM
23 | CCS(=O)(=O)c1ccc(C(=O)N2CCC3(CC2)Oc2ccccc2-n2c(C(F)(F)F)ccc23)cc1 [Compound 456] | ≤ 2000 nM
24 | COc1c(F)cccc1C(=O)N1CCC2(CC1)Oc1cc(Cl)ccc1-c1c2cnn1C [Compound 328] | ≤ 2000 nM
25 | O=C(c1ccccc1OC(F)F)N1CCC2(CC1)Oc1ccccc1-c1c2cnn1C(F)(F)F [Compound 337] | ≤ 2000 nM
26 | CCCOc1ccc(C(=O)N2CCC3(CC2)Oc2ccccc2-n2c(C)ccc23)cc1C(F)(F)F [Compound 818] | ≤ 2000 nM
27 | Cc1cc(C(=O)N2CCC3(CC2)Oc2ccccc2-n2cccc23)ccc1OC(C)(C)C [Compound 538] | ≤ 2000 nM
28 | Cn1ncc2c1-c1ccccc1OC21CCN(C(=O)c2ccc3[nH]ncc3c2)CC1 [Compound 444] | > 5000 nM
29 | COCCOc1cc(F)c(C(=O)N2CCC3(CC2)Oc2cc(Cl)ccc2-n2cccc23)cc1OC [Compound 628] | ≤ 2000 nM
30 | Cc1cc(C(=O)N2CCC3(CC2)Oc2ccccc2-n2c(C#N)ccc23)ccc1O [Compound 76] | ≤ 2000 nM
31 | COC[C@H](C)Oc1ccc(C(=O)N2CCC3(CC2)Oc2cc(Cl)ccc2-n2cccc23)cc1OC [Compound 172] | ≤ 2000 nM
